Laboratory results taken from the supplement of paper PMC10307832.

Legend:
Assay in all cases: relative viability (nuclei count vs DMSO), 5 days (fraction); higher = more cells survive
Cediranib + Navitoclax = compound: COc1cc2c(Oc3ccc4[nH]c(C)cc4c3F)ncnc2cc1OCCCN1CCCC1 [Cediranib] + CC1(C)CCC(c2ccc(Cl)cc2)=C(CN2CCN(c3ccc(C(=O)NS(=O)(=O)c4ccc(N[C@H](CCN5CCOCC5)CSc5ccccc5)c(S(=O)(=O)C(F)(F)F)c4)cc3)CC2)C1 [Navitoclax] (partner 0.5 µM)
Summary of the method: (§1)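 Lung cancer cell lines in 1536-well plates got either a single drug or a fixed anchor-drug dose together with five library-drug doses (not always all listed) in √10 steps, by pin tool, on the day after seeding. Nuclei were counted after 5 days, and relative viability is the treated-to-vehicle ratio of nuclei counts. Values are medians of duplicate plates.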

Cediranib + Phenformin = compound: COc1cc2c(Oc3ccc4[nH]c(C)cc4c3F)ncnc2cc1OCCCN1CCCC1 [Cediranib] + N=C(N)NC(=N)NCCc1ccccc1 [Phenformin] (partner 250 µM)
Summary of the method: as §1

Decitabine + Phenformin = compound: Nc1ncn([C@H]2C[C@H](O)[C@@H](CO)O2)c(=O)n1 [Decitabine] + N=C(N)NC(=N)NCCc1ccccc1 [Phenformin] (partner 250 µM)
Summary of the method: as §1

[1] = compound: O=C(C[C@H]1NCCC[C@@H]1O)Cn1cnc2cc(Br)c(Cl)cc2c1=O (racemic) [Halofuginone] + Nc1nc2[nH]cc(CCc3ccc(C(=O)N[C@@H](CCC(=O)O)C(=O)O)cc3)c2c(=O)[nH]1 [Pemetrexed] (partner 0.2 µM)
Summary of the method: as §1

| Cell Line | relative viability (Cediranib + Navitoclax; first compound 0.04 µM) | relative viability (Cediranib + Navitoclax; first compound 0.1265 µM) | relative viability (Cediranib + Navitoclax; first compound 0.4 µM) | relative viability (Cediranib + Navitoclax; first compound 1.265 µM) | relative viability (Cediranib + Navitoclax; first compound 4 µM) | relative viability (Cediranib + Phenformin; first compound 0.04 µM) | relative viability (Cediranib + Phenformin; first compound 0.1265 µM) | relative viability (Cediranib + Phenformin; first compound 0.4 µM) | relative viability (Cediranib + Phenformin; first compound 1.265 µM) | relative viability (Cediranib + Phenformin; first compound 4 µM) | relative viability (Decitabine + Phenformin; first compound 0.04 µM) | relative viability (Decitabine + Phenformin; first compound 0.1265 µM) | relative viability (Decitabine + Phenformin; first compound 0.4 µM) | relative viability (Decitabine + Phenformin; first compound 1.265 µM) | relative viability (Decitabine + Phenformin; first compound 4 µM) | relative viability ([1]; first compound 0.001 µM) | relative viability ([1]; first compound 0.003162 µM) | relative viability ([1]; first compound 0.01 µM) | relative viability ([1]; first compound 0.03162 µM) | relative viability ([1]; first compound 0.1 µM) |
| --- | --- | --- | --- | --- | --- | --- | --- | --- | --- | --- | --- | --- | --- | --- | --- | --- | --- | --- | --- | --- |
| EBC-1 | 0.388 | 0.441 | 0.37 | 0.52 | 0.455 | – | – | – | – | – | – | – | – | – | – | – | – | – | – | – |
| EKVX | 1.01 | 0.74 | 0.912 | 0.903 | 1.02 | 0.212 | 0.177 | 0.221 | 0.259 | 0.233 | 0.223 | 0.22 | 0.227 | 0.177 | 0.202 | 0.42 | 0.474 | 0.396 | 0.409 | 0.416 |
| EMC-BAC-2 | 1.3 | 1.16 | 1.12 | 1.17 | 1.06 | 0.507 | 0.583 | 0.535 | 0.484 | 0.436 | 0.514 | 0.541 | 0.462 | 0.414 | 0.406 | 0.482 | 0.462 | 0.486 | 0.524 | 0.438 |
| EPLC-272H | 1.35 | – | 1.05 | 1.15 | 1.27 | 0.307 | – | 0.334 | – | 0.253 | – | 0.26 | 0.0458 | 0.223 | 0.199 | 0.42 | 0.359 | 0.308 | 0.345 | 0.358 |
| H3255 | 0.673 | 0.429 | 0.447 | 0.453 | 0.376 | 0.404 | – | 0.337 | 0.373 | 0.312 | – | 0.339 | 0.364 | 0.291 | 0.347 | 0.585 | 0.587 | 0.565 | 0.57 | 0.567 |
| HARA | 1.16 | 1.03 | 1.15 | 1.14 | 1.18 | 0.331 | – | 0.391 | 0.429 | 0.454 | 0.307 | 0.36 | 0.236 | 0.148 | 0.125 | 0.228 | 0.231 | 0.283 | 0.247 | 0.222 |
| HCC-15 | 0.742 | – | 0.693 | 0.678 | 0.767 | 0.491 | – | 0.474 | 0.512 | 0.509 | 0.448 | 0.49 | 0.252 | 0.327 | 0.333 | 0.214 | 0.248 | 0.226 | 0.231 | 0.235 |
| HCC-44 | 0.972 | – | 1.01 | 0.965 | 1.11 | 0.195 | – | 0.241 | 0.224 | 0.201 | 0.136 | 0.196 | 0.0892 | 0.136 | 0.13 | 0.697 | 0.654 | 0.619 | 0.622 | 0.621 |
| HCC-78 | 0.934 | 0.824 | 0.764 | 0.762 | 0.758 | 0.712 | 0.709 | 0.649 | 0.607 | 0.718 | 0.626 | 0.634 | 0.593 | 0.505 | 0.477 | 0.906 | 0.926 | 0.885 | 0.937 | 0.889 |
